Results taken from patent publication US7238694B2, “Rifamycin imino derivatives effective against drug-resistant microbes” (Cumbre Pharmaceuticals, Inc., priority 2004, dated 2007).
≈ marks a conversion by molar mass, not a printed value.

Legend:
Format in all cases: cell-based
[1] = tested on: Staphylococcus aureus MT1222 gyrA^A116E grlB^S80F; experiment: microbe, parasite or virus in culture; conditions: cipR strain, Cation-Adjusted Mueller-Hinton Broth, 37° C., read-out: MIC
[2] = tested on: Staphylococcus epidermidis ATCC12228; experiment: MIC, microbroth dilution (NCCLS); conditions: rifS strain, Cation-Adjusted Mueller-Hinton Broth, 37° C., read-out: MIC
[3] = tested on: Streptococcus pneumoniae ATCC6303; experiment: MIC, microbroth dilution (NCCLS); conditions: rifS strain, THY Broth with 1 mg/mL catalase, 5% CO2, 37° C., read-out: MIC
[4] = tested on: Staphylococcus aureus ATCC29213; experiment: MIC, microbroth dilution (NCCLS); conditions: rifS strain, Cation-Adjusted Mueller-Hinton Broth, 37° C., read-out: MIC
[5] = tested on: Staphylococcus aureus ATCC29213 rpoB^H418Y; experiment: microbe, parasite or virus in culture; conditions: Staphylococcus aureus, ATCC29213; rifR strain; Cation-Adjusted Mueller-Hinton Broth, 37° C.; read-out: MIC
[6] = tested on: Streptococcus pyogenes ATCC19615; experiment: MIC, microbroth dilution (NCCLS); conditions: rifS strain, THY Broth, 37° C., read-out: MIC
[7] = tested on: Haemophilus influenzae ATCC10211; experiment: MIC, microbroth dilution (NCCLS); conditions: rifS strain, BHI Broth with NAD and hematin, 37° C., read-out: MIC

| SMILES | MIC [1] [µg/mL] | MIC [2] [µg/mL] | MIC [3] [µg/mL] | MIC [4] [µg/mL] | MIC [5] [µg/mL] | MIC [6] [µg/mL] | MIC [7] [µg/mL] |
| --- | --- | --- | --- | --- | --- | --- | --- |
| CO[C@H]1/C=C/O[C@@]2(C)Oc3c(C)c(O)c4c(O)c(c(/C=N/N(C)C5CCN(c6nc7c(cc6F)c(=O)c(C(=O)O)cn7-c6ccc(F)cc6F)C5)c(O)c4c3C2=O)NC(=O)/C(C)=C\C=C\[C@H](C)[C@H](O)[C@@H](C)[C@@H](O)[C@@H](C)[C@H](OC(C)=O)[C@@H]1C (mixture of isomers) [Example 43, (R/S)-3-[1-[3-Carboxy-1-(2,4-difluoro-phenyl)-6-fluoro-4-oxo-1,4-dihydro-[1,8]naphthyridin-7-yl]-pyrrolidinyl-3-N′-methylhydrazinomethylenyl]rifamycin SV] | 0.008 to 0.125 (≈ 0.00701 to 0.11 µM) | 0.008 to 0.1 (≈ 0.00701 to 0.0876 µM) | 0.008 to 0.06 (≈ 0.00701 to 0.0526 µM) | 0.008 to 1 (≈ 0.00701 to 0.876 µM) | 0.06 to 16 (≈ 0.0526 to 14 µM) | 0.008 to 0.03 (≈ 0.00701 to 0.0263 µM) | 0.125 to 4 (≈ 0.11 to 3.51 µM) |
| CO[C@H]1/C=C/O[C@@]2(C)Oc3c(C)c(O)c4c(O)c(c(/C=N/N5CCN(c6c(F)cc7c(=O)c(C(=O)O)cn8c7c6OCC8C)CC5C)c(O)c4c3C2=O)NC(=O)/C(C)=C\C=C\[C@H](C)[C@H](O)[C@@H](C)[C@@H](O)[C@@H](C)[C@H](OC(C)=O)[C@@H]1C (mixture of isomers) [Example 44, (R/S)-3-[9-fluoro-3-methyl-10-(3-methyl-piperazin-1-hydrazinomethylenyl)-7-oxo-7H-pyrido[1,2,3-de]-1,4-benzoxazine-6-carboxylic acid]rifamycin SV] | 0.008 to 0.125 (≈ 0.00738 to 0.115 µM) | 0.008 to 0.1 (≈ 0.00738 to 0.0922 µM) | 0.008 to 0.06 (≈ 0.00738 to 0.0553 µM) | 0.008 to 1 (≈ 0.00738 to 0.922 µM) | 0.06 to 16 (≈ 0.0553 to 14.8 µM) | 0.008 to 0.03 (≈ 0.00738 to 0.0277 µM) | 0.125 to 4 (≈ 0.115 to 3.69 µM) |
| CO[C@H]1/C=C/O[C@@]2(C)Oc3c(C)c(O)c4c(O)c(c(/C=N/N5CCC(NC6(C7CCN(c8c(F)cc9c(=O)c(C(=O)O)cn(C%10CC%10)c9c8Cl)C7)CC6)CC5)c(O)c4c3C2=O)NC(=O)/C(C)=C\C=C\[C@H](C)[C@H](O)[C@@H](C)[C@@H](O)[C@@H](C)[C@H](OC(C)=O)[C@@H]1C (mixture of isomers) [Example 45, (R/S)-3-[4-[1-[1-(3-Carboxy-1-cyclopropyl-7-fluoro-8-chloro-4-oxo-4H-quinolin-7-yl)pyrrolidin-3-yl]cycloprop-1-ylamino]piperidin-1-ylaminomethylenyl]rifamycin SV] | 0.008 to 0.125 (≈ 0.0066 to 0.103 µM) | 0.008 to 0.1 (≈ 0.0066 to 0.0825 µM) | 0.008 to 0.06 (≈ 0.0066 to 0.0495 µM) | 0.008 to 1 (≈ 0.0066 to 0.825 µM) | 0.06 to 16 (≈ 0.0495 to 13.2 µM) | 0.008 to 0.03 (≈ 0.0066 to 0.0248 µM) | 0.125 to 4 (≈ 0.103 to 3.3 µM) |
| COc1c(N2CCC(C3(NC4CCN(/N=C/c5c6c(O)c7c(O)c(C)c8c(c7c5O)C(=O)[C@@](C)(O/C=C/[C@H](OC)[C@@H](C)[C@@H](OC(C)=O)[C@H](C)[C@H](O)[C@H](C)[C@@H](O)[C@@H](C)/C=C/C=C(/C)C(=O)N6)O8)CC4)CC3)C2)c(F)cc2c(=O)c(C(=O)O)cn(C3CC3)c12 (mixture of isomers) [Example 46] | 0.008 to 0.125 (≈ 0.00663 to 0.104 µM) | 0.008 to 0.1 (≈ 0.00663 to 0.0828 µM) | 0.008 to 0.06 (≈ 0.00663 to 0.0497 µM) | 0.008 to 1 (≈ 0.00663 to 0.828 µM) | 0.06 to 16 (≈ 0.0497 to 13.3 µM) | 0.008 to 0.03 (≈ 0.00663 to 0.0248 µM) | 0.125 to 4 (≈ 0.104 to 3.31 µM) |
| CO[C@H]1/C=C/O[C@@]2(C)Oc3c(C)c(O)c4c(O)c(c(/C=N/N5CCN(c6cc7c(cc6F)c(=O)c(C(=O)O)cn7C6CC6)CC5)c(O)c4c3C2=O)NC(=O)/C(C)=C\C=C\[C@H](C)[C@H](O)[C@@H](C)[C@@H](O)[C@@H](C)[C@H](OC(C)=O)[C@@H]1C [Example 4, 3-[4-(3-Carboxy-1-cyclopropl-6-fluoro-4-oxo-1,4-dihydroquinolin-7-yl)piperazin-1-yl-aminomethylenyl]rifamycin SV] | 0.008 to 0.125 (≈ 0.00759 to 0.119 µM) | 0.008 to 0.1 (≈ 0.00759 to 0.0949 µM) | 0.008 to 0.06 (≈ 0.00759 to 0.0569 µM) | 0.008 to 1 (≈ 0.00759 to 0.949 µM) | 0.06 to 16 (≈ 0.0569 to 15.2 µM) | 0.008 to 0.03 (≈ 0.00759 to 0.0285 µM) | 0.125 to 4 (≈ 0.119 to 3.79 µM) |
| CO[C@H]1/C=C/O[C@@]2(C)Oc3c(C)c(O)c4c(c3C2=O)C(=O)C(/C=N/N2CCN(c3cc5c(cc3F)c(=O)c(C(=O)O)cn5C3CC3)CC2)=C(NC(=O)/C(C)=C\C=C\[C@H](C)[C@H](O)[C@@H](C)[C@@H](O)[C@@H](C)[C@H](OC(C)=O)[C@@H]1C)C4=O [Example 5, 3-[4-(3-Carboxy-1-cyclopropl-6-fluoro-4-oxo-1,4-dihydroquinolin-7-yl)-piperazin-1-yl-aminomethylenyl]rifamycin S] | 0.008 to 0.125 (≈ 0.0076 to 0.119 µM) | 0.008 to 0.1 (≈ 0.0076 to 0.095 µM) | 0.008 to 0.06 (≈ 0.0076 to 0.057 µM) | 0.008 to 1 (≈ 0.0076 to 0.95 µM) | 0.06 to 16 (≈ 0.057 to 15.2 µM) | 0.008 to 0.03 (≈ 0.0076 to 0.0285 µM) | 0.125 to 4 (≈ 0.119 to 3.8 µM) |
